Test results as given in PMC9855970, “Cysteine Biosynthesis in Campylobacter jejuni: Substrate Specificity of CysM and the Dualism of Sulfide” (Biomolecules, 2022).

Biological target: T1, CysM (Cj0912) (Campylobacter jejuni, UniProt P71128)
T1 sequence (P71128 1-299): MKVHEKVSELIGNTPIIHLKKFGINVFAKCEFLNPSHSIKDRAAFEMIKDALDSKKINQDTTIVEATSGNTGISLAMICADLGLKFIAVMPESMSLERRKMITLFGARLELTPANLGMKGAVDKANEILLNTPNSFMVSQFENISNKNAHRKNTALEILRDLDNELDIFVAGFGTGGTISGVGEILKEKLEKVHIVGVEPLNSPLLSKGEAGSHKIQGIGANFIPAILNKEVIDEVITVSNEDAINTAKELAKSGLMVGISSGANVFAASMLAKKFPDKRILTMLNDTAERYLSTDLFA
Assay: UV-Vis absorbance at […] nm of purified enzyme
Format: binding
Conditions: 100 mM Tris-HCl pH 7.4, 50 mM NaCl; co-purified, covalent internal Schiff base with lysine

With Cc1ncc(COP(=O)(O)O)c(C=O)c1O [PLP, pyridoxal 5′-phosphate] the “UV-Vis absorbance at 412 nm of purified enzyme” value was “Cj0912 purified with the PLP cofactor in situ”.
